Source: patent US20250098679A1, “HERBICIDAL PYRIDONE DERIVATIVES” (SYNGENTA CROP PROTECTION AG, priority 2021, published 2025)

Experiments:
Type in all cases: in vivo
Conditions in all cases: evaluated after 13 days
[1] = test system: Amaranthus palmeri (AMAPA); assay: Post-emergence Test, Amaranthus palmeri (AMAPA); parameters: key: 5=81-100%, 4=61-80%, 3=41-60%, 2=21-40%, 1=0-20% damage
Outline: (§1)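 Scores are percentage plant damage on a 1–5 scale (1=0-20%, 2=21-40%, 3=41-60%, 4=61-80%, 5=81-100%), read 13 days after treatment. Pots received a spray at 1000 g/ha unless otherwise stated, formulated in acetone/water (50:50) containing 0.5% Tween 20.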

Zea mays (ZEAMX) = assay: Post-emergence Test, Zea mays (ZEAMX); parameters: key to percentage damage caused to the plant, ZEAMX (five-point scale): 5=81-100%, 4=61-80%, 3=41-60%, 2=21-40%, 1=0-20% damage
Outline: as §1

Setaria faberi (SETFA) = assay: Post-emergence Test, Setaria faberi (SETFA); parameters: key to percentage damage caused to the plant, SETFA (five-point scale): 5=81-100%, 4=61-80%, 3=41-60%, 2=21-40%, 1=0-20% damage
Outline: as §1

[2] = test system: Ipomoea hederacea (IPOHE); assay: Post-emergence Test, Ipomoea hederacea (IPOHE); parameters: key to percentage damage caused to the plant, IPOHE (five-point scale): 5=81-100%, 4=61-80%, 3=41-60%, 2=21-40%, 1=0-20% damage
Outline: as §1

[3] = test system: Echinochloa crus-galli (ECHCG); assay: Post-emergence Test, Echinochloa crus-galli (ECHCG); parameters: key to percentage damage caused to the plant, ECHCG (five-point scale): 5=81-100%, 4=61-80%, 3=41-60%, 2=21-40%, 1=0-20% damage
Outline: as §1

[4] = test system: Amaranthus retoflexus (AMARE); assay: Post-emergence Test, Amaranthus retoflexus (AMARE); parameters: key to percentage damage caused to the plant, AMARE (five-point scale): 5=81-100%, 4=61-80%, 3=41-60%, 2=21-40%, 1=0-20% damage
Outline: as §1

| SMILES | percentage damage caused to the plant, AMAPA (five-point scale) ([1]; 1000 g/ha) | percentage damage caused to the plant, ZEAMX (five-point scale) (Zea mays (ZEAMX); 1000 g/ha) | percentage damage caused to the plant, SETFA (five-point scale) (Setaria faberi (SETFA); 1000 g/ha) | percentage damage caused to the plant, IPOHE (five-point scale) ([2]; 1000 g/ha) | percentage damage caused to the plant, ECHCG (five-point scale) ([3]; 1000 g/ha) | percentage damage caused to the plant, AMARE (five-point scale) ([4]; 1000 g/ha) | percentage damage caused to the plant, AMAPA (five-point scale) ([1]; 250 g/Ha) | percentage damage caused to the plant, ZEAMX (five-point scale) (Zea mays (ZEAMX); 250 g/Ha) | percentage damage caused to the plant, SETFA (five-point scale) (Setaria faberi (SETFA); 250 g/Ha) | percentage damage caused to the plant, IPOHE (five-point scale) ([2]; 250 g/Ha) | percentage damage caused to the plant, ECHCG (five-point scale) ([3]; 250 g/Ha) | percentage damage caused to the plant, AMARE (five-point scale) ([4]; 250 g/Ha) |
| --- | --- | --- | --- | --- | --- | --- | --- | --- | --- | --- | --- | --- |
| CCn1c(Cn2ccnc2C2CC2)cc(=O)c(C(=O)O)c1-c1ccc(Cl)c(Cl)c1 [Compound 95, 6-[(2-cyclopropylimidazol-1-yl)methyl]-2-(3,4-dichlorophenyl)-1-ethyl-4-oxo-pyridine-3-carboxylic acid] | 1 (1=0-20%) | 1 (1=0-20%) | 1 (1=0-20%) | 1 (1=0-20%) | 1 (1=0-20%) | 0 | – | – | – | – | – | – |
| CCn1c(Cn2nc(C(F)F)c3c2CCOC3)cc(=O)c(C(=O)O)c1-c1ccc(Cl)c(Cl)c1 [Compound 87, 2-(3,4-dichlorophenyl)-6-[[3-(difluoromethyl)-6,7-dihydro-4H-pyrano[4,3-c]pyrazol-1-yl]methyl]-1-ethyl-4-oxo-pyridine-3-carboxylic acid] | 2 (2=21-40%) | 1 (1=0-20%) | 1 (1=0-20%) | 1 (1=0-20%) | 1 (1=0-20%) | 1 (1=0-20%) | 0 | 1 (1=0-20%) | 0 | 0 | 1 (1=0-20%) | 0 |
| CCn1c(Cn2cc3ccccc3n2)cc(=O)c(C(=O)O)c1-c1ccc(Cl)c(Cl)c1 [Compound 106, 2-(3,4-dichlorophenyl)-1-ethyl-6-(indazol-2-ylmethyl)-4-oxo-pyridine-3-carboxylic acid] | 1 (1=0-20%) | 0 | 1 (1=0-20%) | 3 (3=41-60%) | 1 (1=0-20%) | 1 (1=0-20%) | 0 | 0 | 0 | 0 | 2 (2=21-40%) | 0 |
| CCC(=O)Nc1ccn(Cc2cc(=O)c(C(=O)O)c(-c3ccc(Cl)c(Cl)c3)n2CC)n1 [Compound 192, 2-(3,4-dichlorophenyl)-1-ethyl-4-oxo-6-[[3-(propanoylamino)pyrazol-1-yl]methyl]pyridine-3-carboxylic acid] | 1 (1=0-20%) | 0 | 0 | 0 | 0 | 1 (1=0-20%) | – | – | – | – | – | – |
| CCn1c(Cn2cnc(C(=O)OC)c2)cc(=O)c(C(=O)O)c1-c1ccc(Cl)c(Cl)c1 [Compound 76, 2-(3,4-dichlorophenyl)-1-ethyl-6-[(4-methoxycarbonyl-imidazol-1-yl)methyl]-4-oxo-pyridine-3-carboxylic acid] | 1 (1=0-20%) | 1 (1=0-20%) | 1 (1=0-20%) | 0 | 0 | 1 (1=0-20%) | – | – | – | – | – | – |
| CCn1c(Cn2nc(C(F)(F)F)c3c2CCOC3)cc(=O)c(C(=O)O)c1-c1ccc(Cl)c(Cl)c1 [Compound 107, 2-(3,4-dichlorophenyl)-1-ethyl-4-oxo-6-[[3-(trifluoromethyl)-6,7-dihydro-4H-pyrano[4,3-c]pyrazol-1-yl]methyl]pyridine-3-carboxylic acid] | 1 (1=0-20%) | 0 | 1 (1=0-20%) | 2 (2=21-40%) | 1 (1=0-20%) | 1 (1=0-20%) | 0 | 0 | 0 | 0 | 2 (2=21-40%) | 0 |
